{"source": "patent US20260191874A1", "about": "“FUSED AMINO PYRIMIDINE COMPOUNDS FOR TREATMENT OF AUTISM SPECTRUM DISORDER, OBSESSIVE COMPULSIVE DISORDER AND TICS” (Ovid Therapeutics Inc., priority 2024, published 2026)", "key": {"NKCC1": {"molecular_target": "T1, NKCC1 (Homo sapiens, UniProt P55011)", "T1 construct": "expressed in transfected cells; host or cells: HEK-293", "T1 sequence (P55011 1-1212)": "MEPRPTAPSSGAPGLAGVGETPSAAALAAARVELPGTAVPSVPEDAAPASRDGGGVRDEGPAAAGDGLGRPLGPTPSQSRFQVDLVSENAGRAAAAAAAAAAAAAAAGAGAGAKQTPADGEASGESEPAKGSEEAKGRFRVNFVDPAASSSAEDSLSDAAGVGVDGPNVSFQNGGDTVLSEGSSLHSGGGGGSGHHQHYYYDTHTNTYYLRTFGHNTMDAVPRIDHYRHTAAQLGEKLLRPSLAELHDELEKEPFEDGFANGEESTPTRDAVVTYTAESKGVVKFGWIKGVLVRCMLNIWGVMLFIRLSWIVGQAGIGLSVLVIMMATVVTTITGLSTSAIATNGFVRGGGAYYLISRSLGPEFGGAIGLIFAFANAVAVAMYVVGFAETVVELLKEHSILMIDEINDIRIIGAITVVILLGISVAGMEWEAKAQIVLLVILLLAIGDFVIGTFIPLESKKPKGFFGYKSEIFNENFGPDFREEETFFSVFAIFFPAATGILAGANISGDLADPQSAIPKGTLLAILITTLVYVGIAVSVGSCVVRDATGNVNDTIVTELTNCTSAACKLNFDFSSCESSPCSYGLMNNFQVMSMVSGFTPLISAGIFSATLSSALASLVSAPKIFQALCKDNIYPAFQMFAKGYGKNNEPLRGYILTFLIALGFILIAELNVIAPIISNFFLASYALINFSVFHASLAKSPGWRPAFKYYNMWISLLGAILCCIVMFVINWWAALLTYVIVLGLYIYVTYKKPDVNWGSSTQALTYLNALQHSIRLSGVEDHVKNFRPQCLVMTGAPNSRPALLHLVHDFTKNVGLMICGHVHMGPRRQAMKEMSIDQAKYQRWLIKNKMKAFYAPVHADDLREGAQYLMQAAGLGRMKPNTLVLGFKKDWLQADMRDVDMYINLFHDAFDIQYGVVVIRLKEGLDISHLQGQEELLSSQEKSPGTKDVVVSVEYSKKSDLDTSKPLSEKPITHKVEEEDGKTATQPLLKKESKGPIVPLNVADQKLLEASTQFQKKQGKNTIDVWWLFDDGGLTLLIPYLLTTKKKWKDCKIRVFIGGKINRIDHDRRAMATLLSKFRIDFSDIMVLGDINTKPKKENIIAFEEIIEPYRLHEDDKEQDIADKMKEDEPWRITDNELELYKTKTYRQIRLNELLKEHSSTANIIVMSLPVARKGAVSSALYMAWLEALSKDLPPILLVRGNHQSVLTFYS", "assay": "Tl+ flux assay in HEK-293 cells expressing NKCC1", "assay_type": "cell-based", "conditions": "read-out: concentration at which effects on NKCC1 were seen (EC50 chart, FIG. 1G)", "method": "FLIPR TI Flux assay. HEK-293 cells were washed with HBSS, and then incubated with loading buffer containing TI sensitive fluorescent dye (https://www.moleculardevices.com), 20 μM bumetanide 20 μM ouabain and 2.5 mM probenecid for 1 h at room temperature (RT) under control conditions or with drugs in the dark using a FlexStation 3 microplate reader (Molecular Devices) and imaged […] for 30 min. Stimulus buffer was added containing 5 mM K^+/0.5 mM Tl^+ and cells were imaged every 1.5 over a 190 second time course The initial rate Tl^+ uptake (Relative Fluorescence Units (RFU) per second) was determined following addition of the stimulus buffer as outlined previously (Conway et al., 2017, supra) (Lee et al., 2022, supra).\nSeveral studies have shown that the activity and plasma membrane accumulation of KCC2 is potentiated via phosphorylation of S940, a process mediated by the activity of protein kinase C and protein phosphatase 1 (Lee et al., 2011, supra; Lee et al., J Biol Chem 282, 29777-29784 (2007); Moore et al., Proc. Natl. Acad. Sci. U.S.A 115, 10166-10171 (2018); Moore et al., Trends Neurosci. 40, 555-571 (2017); Silayeva et al., Proc. Natl. Acad. Sci. U.S.A 112, 3523-3528 (2015)). […] Compared to KCC2, effects on KCC3, KCC4, and NKCC1 were only seen at concentrations more than 35-fold that of KCC2 (≥100 μM) (FIG. 1G)."}, "[1]": {"assay": "PK studies: brain and plasma levels by LC-MS/MS", "assay_type": "in vivo, mice"}, "[2]": {"parameters": "species or system mice", "conditions": "in vivo"}, "acute brain slices": {"test_system": "acute brain slices", "assay": "Acute brain slices exposed to 0-Mg"}, "hippocampus": {"test_system": "hippocampus", "assay": "Neuronal cell death in the hippocampus of mice treated with diazepam", "assay_type": "in vivo", "conditions": "Compound A and diazepam, compared to diazepam alone"}}, "note": "pEC50: −log10 of the molar value."}
{"smiles": "C[C@@H]1CN(c2nc3c(c(Nc4ccc(C5CCCCC5)cc4)n2)COC3)CCO1", "note": "[Compound A, (R)—N-(4-cyclohexylphenyl)-2-(2-methylmorpholino)-5,7-dihydrofuro[3,4-d]pyrimidin-4-amine]", "values": [{"measurement": "pEC50", "setting": "NKCC1", "value": "≤ 4.00"}, {"measurement": "time by which accumulation in the brain was evident", "setting": "[1]; 25 mg/kg IV bolus, mice", "value": "≤ 30", "unit": "min"}, {"measurement": "time at which accumulation in brain was detected", "setting": "[1]; 50 mg/kg SC", "value": 30, "unit": "min"}, {"measurement": "time of maximal concentration in brain", "setting": "[1]; 50 mg/kg SC", "value": 4, "unit": "h"}, {"measurement": "gross effects on mouse behavior", "setting": "[2]", "value": "no gross effects"}, {"measurement": "total distance traveled in open field", "setting": "[2]; mouse, sc, 50 mg/kg", "value": "6134.2±235.3", "unit": "cm"}, {"measurement": "neuronal Cl− accumulation and development of late recurrent discharges (LRDs)", "setting": "acute brain slices", "value": "reduced"}, {"measurement": "neuronal cell death in the hippocampus", "setting": "hippocampus", "value": "significantly reduced"}]}
